# Laboratory results as given in publication PMC2954226, “Structure of the γ-D-glutamyl-L-diamino acid endopeptidase YkfC from Bacillus cereus in complex with L-Ala-γ-D-Glu: insights into substrate recognition by NlpC/P60 cysteine peptidases” (Acta Crystallographica Section F: Structural Biology and …, 2010).
# Non-standard residues stand in square brackets, D forms with d. Residues, ends and D or L forms follow the SMILES beside them.
# Biological target: T1, BcYkfC (Bacillus cereus, UniProt Q736M3)
# T1 construct: gene ykfC; signal peptide (residues 1-23) removed; N-terminal His tag cut by TEV leaving Gly0; selenomethionine protein from E. coli; SH3b1 (29-129), SH3b2 (130-207) and NlpC/P60 (208-333) domains; model 29-333; monomer
# T1 sequence (Q736M3 24-333): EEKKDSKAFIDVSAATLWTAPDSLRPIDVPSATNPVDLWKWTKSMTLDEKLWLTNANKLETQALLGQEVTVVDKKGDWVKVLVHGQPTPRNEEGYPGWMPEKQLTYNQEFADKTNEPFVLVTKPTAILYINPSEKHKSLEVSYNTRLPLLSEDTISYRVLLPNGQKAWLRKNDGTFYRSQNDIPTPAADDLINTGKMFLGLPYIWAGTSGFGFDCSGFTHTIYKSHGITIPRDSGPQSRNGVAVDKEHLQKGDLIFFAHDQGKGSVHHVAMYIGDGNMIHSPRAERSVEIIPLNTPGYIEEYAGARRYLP
# Experiment: X-ray crystal structure, […] Å (SeMet MAD)
# Type: binding
# Conditions: ligand co-purified, most likely from E. coli expression host; S2-S1 site; catalytic Cys238 oxidized (OCS), enzyme inactive in the crystal; crystallized at pH 4.2, 277 K
smiles,measurement,value
C[C@H](N)C(=O)N[C@H](CCC(=O)O)C(=O)O [L-Ala-γ-D-Glu] (H-Ala-[dE]-OH),"X-ray crystal structure, 1.79 Å (SeMet MAD)",The dipeptide L-Ala-γ-D-Glu was identified from well defined electron density in the active site
